In patent US20130231291A1, “FERMENTED SOYA BASED MIXTURE COMPRISING ISOFLAVONES- AGLICONES, EQUOL AND LUNASIL, PROCESS FOR THE PREPARATION AND USES THEREOF IN FOOD, MEDICAL AND COSMETIC FIELDS” (priority 2010, published 2013):

Key:
Assay type in all cases: cell-based, human
Caco-2/TC7 cells [1] = experiment: Nitric oxide (NO) release, Griess reagent; conditions: pre-treated 24 h at 10 μM (soya milk: equol 10 μM), then IFN-γ 1000 U/ml + LPS 100 ng/ml for 24 h
Procedure: The cells have been pre-treated for 24 h with chemical compounds (10 μM) used as standards (equol, daidzein, genistein and glycitein) and soya milk, obtained from biological soya flour, not fermented or fermented using mixed selected starter, diluted at equol final concentration of 10 μM and sterile filtered. Successively, the cells have been stimulated with γ-interpheron (IFN-γ) (1000 U/ml) and lipopolysaccharide (LPS) (100 ng/ml) for 24 h. DMEM culture medium containing DMSO (1%, v/v) or methanol (0.5%, v/v) has been used as negative control. Data are the average of three triplicate experiments. Asterisk indicates meaningful differences (P<0.01) compared to negative control.
The nitric oxide release (NO) from Caco-2/TC7 cells has been determined by measuring the oxidation products, i.e. nitrite and nitrate. After incubation with the different preparations, the supernatant of cell cultures has been mixed with an equal volume of Griess reagent (1%, p/v, sulfanilic acid in 0.5 M HCl and 0.1%, p/v, N-1-naphthylethylendiamine hydrochloride). After 30 min of incubation at room temp., the absorbance at 540 nm has been measured Nitrite concentration has been determined with reference to standard curve prepared with sodium nitrite.
Preliminarily, Caco-2/TC7 cells have been treated for 24 h at concentration of 10 μM with the OFS fermented soya milk and diluted at equol final concentration of 10 μM or with not fermented soya milk. […] Successively, Caco-2/TC7 cells have been stimulated with INF-γ (1000 U/ml) e LPS (100 ng/ml) per 24 h.

Caco-2/TC7 cells [2] = experiment: TEER of Caco-2/TC7 cell layer; conditions: for TEER of cells stimulated with IFN-γ: IFN-γ 1000 U/ml, 24, 48 and 72 h, soya milk diluted at equol 10 μM
Procedure: The incubation has been carried out in the presence of γ-interpheron (IFN-γ) (1000 U/ml (-▪-); IFN-γ and soya milk, obtained from biological soya flour, not fermented (-Δ-) or fermented with the selected mixed starter, diluted at equol final concentration of 10 μM and sterile filtered. (-x-). DMEM culture medium has been used as negative control (-♦-). Data are the average of three triplicate experiments. Asterisk indicates meaningful differences (P<0.01) compared to negative control.
For TEER measurement Caco-2/TC7 cells have been inoculated (7.5×10^4 cell/ml) in a microplate container with 24 […] and a polyethylene filter (0.4 μm pore size). Before the treatment, the cells have been incubated for 21 days at 37° C. […] Integrity of cellular layer then has been determined by means of TEER measurements.
Under culture conditions of this study, Caco-2/TC7 cells develop morphological and functional characteristics of enterocytes, including tight intercellular junctions, integrity thereof being measured by TEER determination. Preliminarily, TEER has been determined in the presence of standard chemical compounds (10-100 μM), fermented OFS soya milk and diluted at equol concentration of 10 μM, or not fermented OFS soya milk. […] Treatments of Caco-2/TC7 cells with INF-γ (1000 U/ml) favoured a remarkable decrease (P<0.003) of TEER value (FIG. 6).

[3] = test system: interleukin-8 (IL-8) from Caco-2/TC7 cells; experiment: Interleukin-8 release by ELISA after IL-1β stimulation; conditions: IL-1β 2 ng/ml for 24 h, then 24 h treatment at 10 μM (soya milk: equol 10 μM)
Procedure: DMEM culture medium containing DMSO (1%, v/v) or methanol (0.5%, v/v) has been used as negative control. Data are the average of three triplicate experiments. Asterisk indicates meaningful differences (P<0.01) compared to negative control.
For measurement of released interleukin-8 (IL-8) Caco-2/TC7 cells have previously been incubated (24 h) with interleukin-1β and then stimulated for further 24 h with the different preparations. The synthesis of pro-inflammatory IL-8 has been determined by ELISA assay (Bender MedSystems). The quantification has been carried out using a standard curve according to .kit instructions
Interleukin-8 (IL-8) is a member of C—X—C chemokine family and plays a fundamental role in activation of neutrophil cells, thus initiating the inflammatory response. When Caco-2/TC7 cells are subjected to a treatment with inteleukin-1β (2 ng/ml) has been observed a meaningful increment (P<0.001) of IL-8 synthesis (FIG. 7).

Caco-2/TC7 cells [4] = experiment: Neutral Red uptake cytotoxicity assay; conditions: standard chemical compounds 5-100 μM; vs methanol and DMSO negative control
Procedure: Human origin Caco-2 cells (clone TC7) have been cultured in Dulbecco (DMEM) medium, added with bovine foetal serum (10%), not essential amino acids (1%), gentamycin/streptomycin (50 μg/ml), glutamine (2 mM) and 4-2-hydroxyethyl-1-piperazinyl-ethanesulfonic acid (1%) (Di Cagno et al., 2010. Quorum sensing in sourdough Lactobacillus plantarum DC400: induction of plantaricin A (PlnA) under co-cultivation with other lactic acid bacteria and effect of PlnA on bacterial and Caco-2 cells. Proteomics in press). The cells viability has been determined by uptake assay of Neutral Red dye (Balls et al., 1987. Approaches to validation alternative methods in toxicology. In: Goldber A. M. (Ed). N.Y. Academic Press pp. 45-58). After treatment for 24-72 h with the different preparations, the cells have been washed with PBS buffer and incubated for 4 h at 37° C. with Neutral Red solution (33 mg/l). […] Plate reading has been carried out using Novapath reader (Biorad, Hercules, Calif.) (Di Cagno et al., 2010).
With the purpose to test immunomodulating properties of isoflavones-aglicones contained in soya milk produced from biological soya flour (OFS), cytotoxicity against Caco-2/TC7 cells by standard chemical compounds (equol, daidzein, genistein and glycitein) at concentrations of 5-100 μM using Neutral Red (NR) uptake assay, firstly has been evaluated.

With `O=c1c(-c2ccc(O)cc2)coc2cc(O)ccc12` [daidzein] the “NO release after IFN-γ and LPS stimulation” value (from here on “NO release”) (Caco-2/TC7 cells [1]) was “significantly increased”, the “TEER of cells stimulated with IFN-γ” value (Caco-2/TC7 cells [2]) was “has not interfered with the negative effect caused by INF-γ” and the IL-8 synthesis [3] was “meaningful decrement”.

With `Oc1ccc([C@H]2COc3cc(O)ccc3C2)cc1` [equol] the “NO release” value (Caco-2/TC7 cells [1]) was “inhibited in a marked manner”, the “TEER of cells stimulated with IFN-γ” value (Caco-2/TC7 cells [2]) was “trend similar to fermented OFS soya milk” and the “effects on TEER without IFN-γ” value (Caco-2/TC7 cells [2]; equol at 100 μM, 72 h of incubation) was “exception”. The IL-8 synthesis [3] was “meaningful decrement”.

With `O=c1c(-c2ccc(O)cc2)coc2cc(O)cc(O)c12` [genistein] the “cell proliferation (Neutral Red uptake)” value (Caco-2/TC7 cells [4]) was “did not affect significantly cell proliferation”, the “NO release” value (Caco-2/TC7 cells [1]) was “considerable inhibition” and the “TEER of cells stimulated with IFN-γ” value (Caco-2/TC7 cells [2]) was “trend similar to fermented OFS soya milk”. The IL-8 synthesis [3] was “did not resulted in (P<0.10) a decrement”.

In the case of `COc1cc2c(=O)c(-c3ccc(O)cc3)coc2cc1O` [glycitein], the “NO release” value (Caco-2/TC7 cells [1]) is reported as “considerable inhibition”, the “TEER of cells stimulated with IFN-γ” value (Caco-2/TC7 cells [2]) is reported as “trend similar to fermented OFS soya milk” and the IL-8 synthesis [3] is reported as “did not resulted in (P<0.10) a decrement”.
